Experimental data published in patent US6358981B1, “Sulphonamide derivatives” (Eli Lilly and Company, priority 1998, dated 2002).

Tests used:
[1] = molecular target: T1, human GluR4B receptor (Homo sapiens, UniProt P48058); test: potentiation of agonist-induced excitability of human GluR4B receptor expressed in HEK 293 cells; format: cell-based
T1 construct: expressed in transfected cells
Source text: The ability of compounds of formula I to potentiate glutamate receptor-mediated response may be determined using fluorescent calcium indicator dyes (Molecular Probes, Eugene, Oreg., Fluo-3) and by measuring glutamate-evoked efflux of calcium into GluR4 transfected HEK293 cells, as described in more detail below.
In one test, 96 well plates containing confluent monolayers of HEK cells stably expressing human GluR4B (obtained as described in European Patent Application Publication Number EP-A1-583917) are prepared. The tissue culture medium in the wells is then discarded, and the wells are each washed once with 200 μl of buffer (glucose, 10 mM, sodium chloride, 138 mM, magnesium chloride, 1 mM, potassium chloride, 5 mM, calcium chloride, 5 mM, N-[2-hydroxyethyl]-piperazine-N-[2-ethanesulfonic acid], 10 mM, to pH 7.1 to 7.3). […]
Each test is then performed as follows. […] A second fluorescent reading is taken after 5 minutes incubation. 15 μl of 400 μM glutamate solution is then added to each well (final glutamate concentration 100 μM), and a third reading is taken. The activities of test compounds and cyclothiazide solutions are determined by subtracting the second from the third reading (fluorescence due to addition of glutamate in the presence or absence of test compound or cyclothiazide) and are expressed relative to enhance fluorescence produced by 100 μM cyclothiazide.

T1 sequence (P48058 21-902): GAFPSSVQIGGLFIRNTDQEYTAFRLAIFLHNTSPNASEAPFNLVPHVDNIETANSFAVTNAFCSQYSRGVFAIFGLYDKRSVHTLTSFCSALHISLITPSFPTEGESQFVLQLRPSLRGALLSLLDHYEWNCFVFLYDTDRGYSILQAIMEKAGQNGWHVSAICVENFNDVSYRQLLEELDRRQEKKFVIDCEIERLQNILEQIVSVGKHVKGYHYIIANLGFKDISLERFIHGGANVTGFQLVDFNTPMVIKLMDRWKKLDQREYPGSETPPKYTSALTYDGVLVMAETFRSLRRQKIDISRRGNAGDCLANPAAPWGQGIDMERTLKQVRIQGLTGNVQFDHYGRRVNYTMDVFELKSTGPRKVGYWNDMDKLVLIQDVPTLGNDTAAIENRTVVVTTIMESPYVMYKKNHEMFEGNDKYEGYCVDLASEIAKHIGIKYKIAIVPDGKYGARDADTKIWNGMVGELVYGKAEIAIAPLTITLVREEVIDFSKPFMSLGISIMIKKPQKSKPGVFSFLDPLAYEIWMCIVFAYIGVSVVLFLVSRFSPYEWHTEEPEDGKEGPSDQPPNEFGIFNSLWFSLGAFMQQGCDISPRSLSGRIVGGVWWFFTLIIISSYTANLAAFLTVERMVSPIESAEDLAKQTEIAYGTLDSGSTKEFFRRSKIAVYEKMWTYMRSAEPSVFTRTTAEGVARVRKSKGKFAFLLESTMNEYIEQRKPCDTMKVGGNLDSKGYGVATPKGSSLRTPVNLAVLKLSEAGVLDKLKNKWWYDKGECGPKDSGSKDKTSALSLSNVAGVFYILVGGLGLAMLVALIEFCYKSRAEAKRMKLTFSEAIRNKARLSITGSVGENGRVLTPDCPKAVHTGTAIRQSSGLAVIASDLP

CC(C)S(=O)(=O)NCC(F)c1ccc(-c2ccccc2)cc1 (centres unmarked)
melting point: 89 to 91 °C

NS(=O)(=O)c1cc2c(cc1Cl)NC(C1CC3C=CC1C3)NS2(=O)=O (centres unmarked) [cyclothiazide]
potentiation of agonist-induced excitability [1]: potentiate agonist-induced excitability
